“And” between values parts separate entries of the source, which are not always exact repeats. Equal values may be shown once. “Also recorded” adds a separate entry of the source.

This is an account of results in patent US5864033A, “Adenosine kinase inhibitors” (priority 1995, dated 1999).

The subject of data set [1] is rat cardiomyocytes. As to conditions: cited from earlier work.
Data set [2] relates to isolated rat hearts. As to conditions: normoxic, hypoxic, anoxic or ischemic conditions; alone; cited from earlier work.
The test system of data set [3] is mice. As to conditions: cited from earlier work.
In data set [4] the test system is dog hearts. The settings on record: cited from earlier work.
Data set [5] concerns cardiac adenosine kinase. The settings on record: systemic or, in some cases, oral administration.
Data set [6] deals with isolated guinea pig hearts. The settings on record: absence of ADA inhibition; cited from earlier work.
Data set [7] deals with neutrophil adherence to endothelial cells. The data set is described as follows: Inhibition of neutrophil adherence to endothelial cells. The format is cell-based, human. The settings on record: for inhibition of neutrophil adhesion to endothelial cells: fMLP-stimulated human neutrophils, 2 hours, 37° C.; for reversal of inhibition of neutrophil adhesion by adenosine deaminase: with adenosine deaminase 0.125 U/ml. The procedure:
The ability of an adenosine kinase inhibitor to affect neutrophil adherence to fibroblasts and endothelial cells was evaluated in a cell culture model.
These incubations were carried out in the presence of fMLP-stimulated human neutrophils isolated from whole blood (1.25×10^6 /ml) with or without adenosine deaminase (0.125 U/ml). At the end of the incubation, the medium was removed and the monolayers of fibroblasts or endothelial cells and adherent neutrophils were fixed by addition of formaldehyde (3.7%) and, after washing to remove non-adherent neutrophils, adherent neutrophils were stained with Weigart's hematoxylin and counted under a light microscope.

Data set [8] concerns pentylenetetrazol (PTZ)-induced seizures in mice. The data set is described as follows: PTZ-induced seizures. The format is in vivo, male Swiss Webster mice. As to conditions: for attenuation of chemical and electroshock induced seizures: experimental animal models; for oral anticonvulsant activity: 45 minutes prior to PTZ; for Percent Seizure: 45 min prior to PTZ, N = 7; for Seizure Score: mean ± standard deviation.

Data set [9] concerns isolated guinea pig hearts. The experiment in a line: Improved functional recovery in isolated hearts (low flow ischemia/reperfusion). The settings on record: for Preischemic Flow: Conc. 0.3 (M) as printed; for Functional Recovery: Conc. 0.3 as printed, p < 0.05 vs. Control. As to the method: The ability of a number of adenosine kinase inhibitors to improve the recovery of post-ischemic function was examined in an isolated guinea pig heart model.
Isolated guinea pig hearts were cannulated via the ascending aorta and-attached to a perfusion apparatus according to the method of Langendorff. The hearts were perfused at a constant pressure of 60 cm of H2 O with a modified Krebs-Hanseleit buffer (pH 7.4) at 37° C. Left ventricular developed pressures (LVDP) were monitored continuously using a latex balloon attached to a pressure transducer. Coronary flows were measured gravimetrically by timed collection of pulmonary effluent. Following equilibration of the hearts for a period of 30 minutes, the hearts were subjected to 45 minutes of low flow ischemia, by reducing the perfusion pressure to 10 cm of H2 O, and then reperfused for 30 minutes by restoring the pressure to its original level (60 cm of H2 O). The adenosine kinase inhibitors BP-1-238, GP-1-515 and GP1-547 were added to the perfusion buffer at the final concentrations specified.

The subject of data set [10] is anesthetized male dogs. The experiment in a line: Preclinical model of stable angina (repeated pacing-induced ischemia). The format is in vivo, dog. The settings on record: intravenous infusion. The procedure:
GP-1-515, was evaluated for its ability to prevent cumulative cardiac dysfunction associated with repeated episodes of pacing-induced ischemia.
Anesthetized male dogs were instrumented to measure regional myocardial wall thickening during right atrial pacing (Young & Mullane, Am. J. Physio., 1991, 261:1570-1577). Animals were subjected to six repeated episodes of pacing. A continuous IV infusion of 1 μg/kg/min of GP-1-515 or saline (control) was administered post pace #1.

Data set [11] relates to isolated guinea pig ileum longitudinal muscle. The data set is described as follows: Inhibition of contraction in isolated ileum. The settings on record: for inhibition of contraction in the isolated ileum: electrically stimulated; for reversal of inhibition of contraction: with 8-sulfophenyltheophylline (8SPT) or adenosine deaminase (ADA). As to the method: The ability of adenosine kinase inhibition to affect stimulated contraction of muscle strips from the isolated ileum has been investigated.
Parallel platinum electrodes were used to deliver electrical current at 1 minute intervals at a voltage adequate to induce contraction of 90% of maximal. The adenosine kinase inhibitors, GP-1-515 or GP-1-547 were added to the tissue baths at different concentrations, with or without either the adenosine receptor antagonist, 8-sulphophenyltheophylline (8SPT) or adenosine deaminase (ADA), and the effects on contraction monitored.

Data set [12] deals with canine coronary thrombosis / cyclic flow reductions. The experiment in a line: Canine model of platelet-induced coronary thrombosis (Folts; cyclic flow reductions). The format is in vivo, dog. As to the method: GP-1-515 was tested in a canine model of platelet-induced coronary thrombosis (Folts, J., Circulation, 1991, 83[Suppl. IV]:IV-3-IV-14). In this model, platelets cyclically aggregate and embolize causing cyclic flow reductions (CFRs) that are quantitated by the frequency and the change in coronary blood flow from low point to peak with each cycle.

As to `OC[C@H]1O[C@@H](n2cnc3c2N=CNC[C@H]3O)C[C@@H]1O` [2'-deoxycoformycin], the “effect on adenosine release” value in [1] (inhibition of adenosine deaminase alone) is given as “no effect on adenosine release”.
With `Nc1ncnc2c1c(I)cn2[C@@H]1O[C@H](CO)[C@@H](O)[C@H]1O` [5-iodotubercidin], in data set [2], the perfusate adenosine concentration entry was “no increase in perfusate adenosine concentration”. In addition, in data set [3], the “flaccidity and locomotor activity” value is “pronounced general flaccidity and much-reduced spontaneous locomotor activity”; the hypothermia entry was “cause hypothermia”. Further, the “effect in ischemia and reperfusion” value in data set [4] is listed as “inconsistent effects”.
On to `NC[C@H]1O[C@@H](n2cnc3c(N)ncnc32)[C@H](O)[C@@H]1O` [GP-1-238, 5'-amino-5'-deoxyadenosine], for which, in data set [5], the “inhibition of cardiac adenosine kinase in vivo” value was “completely inhibited adenosine kinase in vivo”. Also, the “increase in adenosine release” value in [1] (together with ADA inhibition) is 6 fold. Also, the “increase of adenosine release without ADA inhibition” value in [6] is given as “not apparent in the absence of ADA inhibition”.
Take `CNc1ncnc2c1ncn2[C@@H]1O[C@H](CN)[C@@H](O)[C@H]1O` [GP-1-272]: in data set [7], the “inhibition of neutrophil adhesion to endothelial cells” value is recorded as “inhibit neutrophil adhesion to endothelial cells; also recorded: dose-dependent inhibition” and the “reversal of inhibition of neutrophil adhesion by adenosine deaminase” value is reported as “reversed by adenosine deaminase treatment; also recorded: reversal of these inhibitions”.
Take `C[C@H]1O[C@@H](n2cc(I)c3c(N)ncnc32)[C@H](O)[C@@H]1O` [GP-1-456, 5'-deoxy-5-iodotubercidin, reference compound]: the “inhibition of PTZ induced seizures” value in [8] (IP 1, 5 and 10 mg/kg) is on record as “dose-dependent inhibition”. Besides, the “reversal of inhibition of PTZ induced seizures” value in data set [8] (IP […] with theophylline 34 mg/kg or 8-sulfophenyltheophylline 70 mg/kg) is “reversal of this inhibition by the central adenosine receptor antagonist theophylline but not the peripheral antagonist 8-sulfophenyltheophylline”. Further, in [8], the “attenuation of chemical and electroshock induced seizures” value is “potent effects”; the oral anticonvulsant activity result is reported as “exhibit oral anticonvulsant activity”. For the same compound, in [3], the “flaccidity and locomotor activity” value was “pronounced general flaccidity and much-reduced spontaneous locomotor activity”; the hypothermia entry was “cause hypothermia”. In addition, in data set [7], the “inhibition of neutrophil adhesion to endothelial cells” value is reported as “inhibit neutrophil adhesion to endothelial cells; also recorded: dose-dependent inhibition” and the “reversal of inhibition of neutrophil adhesion by adenosine deaminase” value is recorded as “reversed by adenosine deaminase treatment; also recorded: reversal of these inhibitions”.
Consider `NC[C@H]1O[C@@H](n2nc(Br)c3c(N)ncnc32)[C@H](O)[C@@H]1O` [GP-1-515], for which, in [9], the “Preischemic Flow” value amounted to 6.5 ± 0.3 mL/min/g and the “Functional Recovery” value was 79.0 ± 3.4 % preischemic LVDP. Further, the “decline in function / wall thickening with pacing-induced ischemia” value in data set [10] is recorded as “attenuates the decline in wall thickening; also recorded: attenuated the decline in function”. Further, in data set [11], the “inhibition of contraction in the isolated ileum” value is “Inhibition of contraction; also recorded: attenuate contraction; also recorded: dose-dependent inhibition”; the “reversal of inhibition of contraction” value was “reversal by both 8SPT and ADA; also recorded: reversal of these inhibitions”. For the same compound, the “animals in which CFRs were abolished” value in data set [12] (Folts model, dogs) was 3 of 8 and 3 out of 8. Also, the “frequency and change in flow of CFRs where not abolished” value in data set [12] (dog, in vivo) is “reduced both the frequency and the change in flow”.
Consider `NC[C@H]1O[C@@H](n2nc(I)c3c(N)ncnc32)[C@H](O)[C@@H]1O` [GP-1-547], for which, in data set [9], the “Preischemic Flow” value turned out to be 6.2 ± 0.3 mL/min/g and the “Functional Recovery” value worked out at 79.0 ± 3.1 % preischemic LVDP. Besides, in data set [11], the “inhibition of contraction in the isolated ileum” value is given as “Inhibition of contraction; also recorded: attenuate contraction; also recorded: dose-dependent inhibition”; the “reversal of inhibition of contraction” value was “reversal by both 8SPT and ADA; also recorded: reversal of these inhibitions”.
In the case of `C[C@H]1O[C@@H](n2nc(I)c3cncnc32)[C@H](O)[C@@H]1O` [GP-1-560, 3-iodo-1-(5'-deoxy-B-D-ribofuranosyl)pyrazolo[3,4-d]pyrimidine], in data set [8], the “attenuation of chemical and electroshock induced seizures” value was “potent effects”; the oral anticonvulsant activity entry is “exhibit oral anticonvulsant activity”. Also, in data set [8] (oral 30 mg/kg), the “Latency To First Seizure” value worked out at 4.5 min, the “Percent Seizure” value is listed as 71% and the “Seizure Score” value was 0.71 ± 0.5. Further, in data set [8] (oral 50 mg/kg), the “Percent Seizure” value stood at 43% and the “Seizure Score” value came to 1.0 ± 0.9. Further, the “Latency To First Seizure” value in [8] (oral 50 mg/kg, p < 0.05 vs. Control) stood at 7.0 min.
